Patent US9565857B2, “Antimicrobial solutions” (Board of Regents, The University of Texas System, priority 2010, dated 2017)

Columns and labels:
MRSA = test: modified quantitative germicidal spray / quantitative carrier test, Example 1; format: cell-based, Staphylococcus aureus; conditions: criterion: complete kill on 9 of 10 carriers, positive carrier at least 99% reduction; one minute
Protocol: Sterile 50 mL centrifuge tubes, pre-filled with 20 mL of desired neutralizer.
Use 3″×1″ sterile glass containers. Place each carrier into a sterile Petri plastic dish.
Inoculate each carrier with 10 μL of bacterial or fungal suspension. If a carrier has a frosted end, inoculate the non-frosted end.
Using a sterile inoculating needle, spread the inoculum into an approximate 1 cm×1 cm square.
Dry the carriers in a 35° C. incubator for 30 min (lids cracked) or 40 min (lids closed).
Spray each carrier as specified by the test product. Ensure the inoculated area is thoroughly covered. Because of the time it takes to transfer the carrier into the neutralizer, a 30-second (or longer) interval time is recommended.
After the specified exposure time, transfer each carrier to a pre-filled centrifuge tube using forceps. Be sure to pick up the carrier by the non-inoculated end and place the inoculated end into the neutralizer.
Immediately close the cap and invert the tube several times (10 should be sufficient) so the neutralizer coats the entire carrier.
From this point on, follow the enumeration procedure as specified in the Quantitative Carrier Test SOP. […]
The aim of these sets of experiments is to compare the activity of these various solutions on a 10-set slid carriers of MRSA using standard EPA quantitate carrier test in 25-50% calf serum.

[1] = system: methicillin resistant Staphylococcus aureus (MRSA 4798); test: modified Kuhn's biofilm model on silicone discs, lock solutions; format: cell-based; conditions: quantitative culture of biofilm discs after 2 hrs in solution at 37° C.
Protocol: (§1) Biofilm was grown on sterile silicone discs following a modified Kuhn's method. Briefly, silicone discs were placed into a 24 well tissue culture plate and incubated overnight at 37° C. The plasma was then removed and replaced with 1 mL of 5.5×10^5 CFU/mL inoculum of various organisms. The plates were then incubated for an additional 24 hrs at 37° C. Inoculum was then removed and discs were washed shaking for 30 minutes in 0.9% sterile saline. After washing the discs were placed in 1 mL of various antimicrobial solutions and incubated at 37° C. for 2 hrs. The discs were then removed and placed in 5 mL of 0.9% sterile saline and sonicated to disrupt any remaining biofilm. The resulting solution was then quantitatively cultured by making serial dilutions in 0.9% sterile saline and plating on agar plates, TSA+5% sheep blood for all bacterial organisms and Sabouraud Dextrose Agar for yeasts. A total of 3-9 discs were used for both organisms and respective labs solutions (see Tables 4-6).
(§2) Statistical methods: Wilcoxon rank sum tests were used for comparisons. All the analyses were performed using SAS version 9.1 (SAS Institute Inc., Cary, N.C.).

[2] = system: MDR-Pseudomonas aeruginosa (PS 4689); test: as above; format: cell-based; conditions: quantitative culture of biofilm discs after 2 hrs in solution at 37° C.
Protocol: as §1, §2

Candida glabrata = test: as above; format: cell-based; conditions: quantitative culture of biofilm discs after 2 hrs in solution at 37° C.
Protocol: as §1, §2

Row | Structure (SMILES) | test of being highly effective against MRSA (passed/failed) (MRSA) | Mean [1] | Median (range) [1] | Mean [2] | Median (range) [2] | Mean (Candida glabrata) | Median (range) (Candida glabrata)
1 | N=C(NCCCCCCNC(=N)NC(=N)Nc1ccc(Cl)cc1)NC(=N)Nc1ccc(Cl)cc1 [0.06% CHG alone, 1,1′-hexamethylene-bis-[5-(4-chlorophenyl)-biguanide]] | failed the test |  |  |  |  |  | 
2 | OCC(O)CO [50% Glycerol alone, Glycerol] |  | 1.0 × 10^7 | 1.0 × 10^6 | 1.0 × 10^6 | 1.0 × 10^6 | 6.2 × 10^3 | 1.1 × 10^3
